Entries after “also recorded” stand apart in the source; their conditions may differ. Read-outs that look alike come from different tables or passages of the source. Ends that are not written are not given here.
Experiments:
[1] = test system: ADNP+/− mice; experiment: Object recognition test in ADNP-deficient mice; format: in vivo, mouse; details: intranasal, twice a day, 1 month, ADNP+/− male mice
Excerpt: (§1) All procedures involving animals were approved by the Animal Care and Use Committee of Tel Aviv University and the National Institutes of Health (Bethesda, Md.). ADNP heterozygous mice, a model for cognitive impairments (Vulih-Shultzman et al., 2007, J. Pharmacol. Exp. Ther. 323:438-449), were housed in a 12-h light/12-h dark cycle facility, and free access to rodent chow and water was available.
(§2) SKIP (SEQ ID NO:6) treatment included daily intranasal administrations over a 1 month period to 5-month-old male mice (2 μg/5 μl/mouse/day). For intranasal administration, the peptide was dissolved in a vehicle solution, in which each milliliter included 7.5 mg of NaCl, 1.7 mg of citric acid monohydrate, 3 mg of disodium phosphate dihydrate, and 0.2 mg of benzalkonium chloride solution (50%). SKIP (SEQ ID NO:6) or vehicle solution (DD) was administered to mice hand-held in a semisupine position with nostrils facing the investigator. A pipette tip was used to administer 5 μl/each nostril. The mouse was handheld until the solution was totally absorbed (˜10 s). Nasal SKIP (SEQ ID NO:6) application was performed daily, twice a day, for 1 month (5 days a week). After 1 month, SKIP (SEQ ID NO:6) was applied 2 h before the behavioral tests (described below).
The test includes 2 consecutive days of habituation (five minutes per day) and the experimental day which consists of the three phases. The test was conducted two hours after the daily intranasal SKIP (SEQ ID NO:6). During the first phase (Phase 1, habituation phase), the open field apparatus (arena of 50×50 cm) contained two identical objects (samples) and a mouse was placed in the apparatus facing the wall and allowed to freely explore the objects. At the end of the 5-min session of Phase 1, the mouse was put back into its home cage for 3 hours. […] The time spent sniffing/touching each object was measured. The data was analyzed using the following formula: D1=b−a, when ‘a’ designated the time of exploration of the familiar object and ‘b’ designated the time of exploration of the novel object. […]

[2] = test system: PC12 cells; details: ZnCl2 400 μM, 4 h
Description: FIG. 15: Rat pheochromocytoma cells (PC12) were seeded on Poly-D-Lysine coated 96-well tissue culture dishes in high concentration (30,000 cells/well). On the day of the experiment the cells were treated with ZnCl2 (400 μM) either alone or in combination with different concentration of SKIP for 4 h. After 4 h the cell viability was analyzed by MTS assay. […] All values are from one experiment performed in hexplicate.
Rat pheochromocytoma cell (PC12, ATCC, Bethesda, Md., USA) were grown in 10-cm tissue culture dishes (Corning). The base medium for this cell line was RPMI-1640 Medium (Invitrogen) supplemented with 10% heat-inactivated horse serum, 5% fetal bovine serum and solution containing 100 U/ml penicillin together with […] streptomycin (Biological Industries, Beit Haemek, Israel). The cells were incubated in 95% air; 5% CO2 in a humidified incubator at 37° C. The medium was changed every 2 to 3 days. The cells were subcultured when cell density reached 4×10^6 cells/ml. The cells were split in a ratio of 1:4.
On the day before the experiment cells were to be harvested, re-suspended and seeded on tissue culture dishes. For cell viability measurements, cells were seeded on Poly-D-Lysine coated 96-well tissue culture dishes (Sigma-Aldrich) at a concentration of 3×10^4 cells/well.
The cell viability is measured by colorimetric method that determines the number of viable cells in culture. This method is based on the bio-reduction of the tetrazolium compound [3-(4,5-dimethylthiazol-2-yl)-5-(3-carboxymethoxyphenyl)-2-(4-sulfophenyl)-2H-tetrazolium; MTS] by living cells into a colored formazan product. This reaction is occurring in the presence of an electron coupling reagent (phenazine ethosulfate; PES). The amount of formazan product is measured by ELISA plate reader at 490 nm and is directly proportional to the number of living cells in culture (CellTiter 96® AQueous One Solution Cell Proliferation Assay; Promega, Madison, Wis., USA).

[3] = test system: ADNP+/− mice; experiment: Elevated plus-maze in ADNP-deficient mice; format: in vivo, mouse; details: intranasal treatment, ADNP+/− male mice, 5 min
Excerpt: as §1
as §2, with “Nasal SKIP (SEQ ID NO:6) application was performed daily, twice a day, for 1 month (5 days a week). After 1 month, SKIP (SEQ ID NO:6) was applied 2 h before the behavioral tests (described below).” left out
The maze consisted of two open arms (50 cm×10 cm) and two closed arms 50 cm×10 cm×40 cm), with arms of each type opposite to each other. […] The data were analyzed using the following formula: D2=(b−a)/(b+a), when ‘a’ designated the time spent in the open arm and ‘b’ designated the time spent in the closed arm.

[4] = test system: ADNP+/− mice; experiment: Morris water maze in ADNP-deficient mice; format: in vivo, mouse; details: intranasal, twice a day, 1 month, ADNP+/− male mice
Excerpt: as §1
SKIP (SEQ ID NO:6) treatment included daily intranasal administrations over a 1 month period to 5-month-old male mice (2 μg/5 μl/mouse/day). […]
The apparatus was a pool with a diameter of 140 cm, filled with opaque water (23-24° C.). […] The time taken for an animal to reach the platform (latency) was recorded. The daily improvement (in seconds to reach the hidden platform) for each animal (in comparison to the starting day) was calculated. […] The platform was removed from the maze and the distance traveled and the time spent by the mice in the pool's quarter where the platform used to be, were recorded (for a maximal period of 90 s). Mouse behavior in the quarter that is most distant from the target quarter was also measured. All measurements were recorded as the percentage of the total time spent or total path traveled in the pool. To determine the general mobility of the mice in the pool, the swimming behavior of each animal was monitored and the total path length and swim velocity were calculated. […]

SKIP (not fully specified (N-terminus, C-terminus)) [SKIP (SEQ ID NO:6), 4-amino acid peptide Ser-Lys-Ile-Pro]
object recognition, Phase 2 short retention (discrimination index D1) [1]: improved short and long term memory
object recognition, Phase 3 long retention, 24 hours (discrimination index D1) [1]: improvement in long term memory for the ADNP-deficient mice, bringing them to the control levels; also recorded: improved short and long term memory
protection against Zn intoxication (MTS viability vs Zn alone) ([2]; peptide 10^−9M): showed protection
protection against Zn intoxication (MTS viability vs Zn alone) ([2]; peptide 10^−15M): showed protection
risky behavior, time spent in open vs closed arms [3]: reduction in the risky behavior; also recorded: improvement in the risky behavior
water maze first daily test (reference memory), latency to hidden platform [4]: improved learning on the 2nd day; also recorded: improved the memory
water maze second daily test, 5th day, latency to hidden platform [4]: improvement in the behavior of the ADNP-deficient mice, bringing them to the control levels
